According to ChEMBL document CHEMBL1157111, “Oridamycins A and B, anti-Saprolegnia parasitica indolosesquiterpenes isolated from Streptomyces sp. KS84” (2010):
Converted amounts (≈) assume the structure as drawn. The source made the active and inactive calls. No cut-off for these calls is given here.

Key:
Phoma = experiment: Antifungal activity against Phoma CCF3818 assessed as inhibition of hyphae elongation after 24 hrs; type: functional; settings: CCF3818, 24 h
Saccharomyces cerevisiae = experiment: Antifungal activity against Saccharomyces cerevisiae at 1000 ug/ml after 24 hrs; type: functional, organism-based
Saprolegnia parasitica = experiment: Antifungal activity against Saprolegnia parasitica assessed as inhibition of hyphae elongation after 24 hrs; type: functional

Row | MIC (Saccharomyces cerevisiae) | MIC (Saprolegnia parasitica) [µg/mL] | Structure (SMILES) | MIC (Phoma) [µg/mL]
1 |  |  | C[C@@H]1C[C@@H]([C@H](O)CC2CC(=O)NC(=O)C2)C(=O)[C@@H](C)C1 [CYCLOHEXIMIDE] | 25 (≈ 88.9 µM)
2 | inactive | 3 (≈ 8.25 µM) | C[C@]1(C(=O)O)[C@@H](O)CC[C@]2(C)c3cc4c(cc3CC[C@@H]12)[nH]c1ccccc14 [ORIDAMYCIN A] | 242 (≈ 666 µM)
